Assay: solubility
Format: physicochemical
Conditions: for solubility in the stoichiometric amount of N/10 hydrochloric acid: N/10 hydrochloric acid solution

FC(F)(F)C(NC1=NCCO1)c1ccco1 (racemic) [X, dl 2-[α-trifluoromethyl (furyl-2)methylamino] oxazoline]
solubility in the stoichiometric amount of dilute hydrochloric acid (stoichiometric amount, dilute hydrochloric acid): soluble

FC(F)(F)C(NC1=NCCO1)c1ccccc1 (single isomer, unassigned) [XII, levorotatory 2-[α-trifluoromethylbenzylamino] oxazoline]
solubility in dilute hydrochloric acid (dilute hydrochloric acid): solbuble

FC(F)(F)C(NC1=NCCN1)c1ccccc1 (racemic) [I, 2(α-phenyl trifluoroethylamino) imidazoline]
solubility in the stoichiometric amount of N/10 hydrochloric acid (stoichiometric amount): soluble

Cn1cccc1C(NC1=NCCO1)C(F)(F)F (racemic) [XIV, dl α-trifluoromethyl 2-[(N-methylpyrrolyl-2)methylamino] oxazoline]
solubility in a N/10 aqueous solution of hydrochloric acid (N/10 aqueous hydrochloric acid): soluble

Cc1ccccc1C(NC1=NCCO1)C(F)(F)F (racemic) [XIX, dl 2-[(2-methylphenyl) ααα-trifluoroethyl]amino oxazoline]
solubility in the aqueous solution of mineral acids (aqueous mineral acids): soluble
solubility in the usual organic solvents (usual organic solvents): soluble

CN(C1=NCCO1)C(c1ccccc1)C(F)(F)F (racemic) [XV, dl α-trifluoromethyl 2-(N-methylbenzylamino) oxazoline]
solubility in an aqueous solution of hydrochloric acid (aqueous hydrochloric acid): soluble
solubility in the most of the organic solvents (most organic solvents): soluble

FC(F)(F)C(NC1=NCCO1)c1ccc[nH]1 (racemic) [XVI, dl α-trifluoromethyl 2-[(pyrrolyl-2)methylamino] oxazoline]
solubility in the stoichiometric amount of N/10 hydrochloric acid (stoichiometric amount): soluble

From patent US4315020A, “Oxazoline (trifluoroethyl) amine” (Science Union et Cie, priority 1976, dated 1982)
